For experiment [1], the target named is T1, HTR1A (5-HT1A) (Homo sapiens, UniProt P08908).
T1 sequence (P08908 1-422): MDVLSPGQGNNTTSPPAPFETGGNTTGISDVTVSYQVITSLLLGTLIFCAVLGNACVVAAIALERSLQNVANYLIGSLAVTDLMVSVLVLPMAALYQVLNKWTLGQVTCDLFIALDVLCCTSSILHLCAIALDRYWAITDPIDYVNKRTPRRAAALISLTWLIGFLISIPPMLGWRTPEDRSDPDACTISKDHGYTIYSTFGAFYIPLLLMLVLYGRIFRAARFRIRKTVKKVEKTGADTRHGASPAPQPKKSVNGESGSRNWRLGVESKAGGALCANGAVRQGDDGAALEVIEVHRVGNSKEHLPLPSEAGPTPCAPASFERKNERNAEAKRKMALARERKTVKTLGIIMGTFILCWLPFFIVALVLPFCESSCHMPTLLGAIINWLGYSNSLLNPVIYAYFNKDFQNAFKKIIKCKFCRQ
Briefly: cell-based.

The target in experiment [2] is T2, AVPR1A (Homo sapiens, UniProt P37288). Briefly: cell-based.
T2 sequence (P37288 whole entry): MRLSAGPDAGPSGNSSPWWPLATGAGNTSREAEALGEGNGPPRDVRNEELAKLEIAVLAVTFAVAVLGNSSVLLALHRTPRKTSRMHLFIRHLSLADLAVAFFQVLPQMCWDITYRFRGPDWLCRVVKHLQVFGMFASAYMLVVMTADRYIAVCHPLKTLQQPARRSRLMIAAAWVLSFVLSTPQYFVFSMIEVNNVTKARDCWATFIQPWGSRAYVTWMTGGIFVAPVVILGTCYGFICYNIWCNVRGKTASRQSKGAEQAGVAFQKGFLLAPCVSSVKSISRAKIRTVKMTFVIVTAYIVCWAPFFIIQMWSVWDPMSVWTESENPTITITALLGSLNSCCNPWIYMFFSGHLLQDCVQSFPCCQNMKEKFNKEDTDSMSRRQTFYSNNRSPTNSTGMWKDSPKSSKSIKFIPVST
The target in experiment [3] is T3, HTR3A (5-HT3A) (Homo sapiens, UniProt P46098).
T3 sequence (P46098 24-478): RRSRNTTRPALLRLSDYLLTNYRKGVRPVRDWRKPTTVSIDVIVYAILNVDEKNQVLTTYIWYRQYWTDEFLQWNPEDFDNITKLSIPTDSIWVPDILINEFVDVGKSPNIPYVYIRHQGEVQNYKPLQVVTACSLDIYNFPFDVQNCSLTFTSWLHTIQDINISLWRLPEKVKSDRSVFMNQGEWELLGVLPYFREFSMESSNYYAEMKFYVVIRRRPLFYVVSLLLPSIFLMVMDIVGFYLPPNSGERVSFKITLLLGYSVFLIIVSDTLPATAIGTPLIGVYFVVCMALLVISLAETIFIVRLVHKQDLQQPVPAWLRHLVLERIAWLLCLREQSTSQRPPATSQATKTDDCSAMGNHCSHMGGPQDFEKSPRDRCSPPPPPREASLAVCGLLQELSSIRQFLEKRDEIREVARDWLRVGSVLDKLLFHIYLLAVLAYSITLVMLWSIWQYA
Put plainly: cell-based.

Experiment [4] has as its target HTR2A (Homo sapiens, UniProt P28223). Briefly: cell-based.
Experiment [5] has as its target T4, ADRA2A (Homo sapiens, UniProt P08913).
T4 sequence (P08913 1-465): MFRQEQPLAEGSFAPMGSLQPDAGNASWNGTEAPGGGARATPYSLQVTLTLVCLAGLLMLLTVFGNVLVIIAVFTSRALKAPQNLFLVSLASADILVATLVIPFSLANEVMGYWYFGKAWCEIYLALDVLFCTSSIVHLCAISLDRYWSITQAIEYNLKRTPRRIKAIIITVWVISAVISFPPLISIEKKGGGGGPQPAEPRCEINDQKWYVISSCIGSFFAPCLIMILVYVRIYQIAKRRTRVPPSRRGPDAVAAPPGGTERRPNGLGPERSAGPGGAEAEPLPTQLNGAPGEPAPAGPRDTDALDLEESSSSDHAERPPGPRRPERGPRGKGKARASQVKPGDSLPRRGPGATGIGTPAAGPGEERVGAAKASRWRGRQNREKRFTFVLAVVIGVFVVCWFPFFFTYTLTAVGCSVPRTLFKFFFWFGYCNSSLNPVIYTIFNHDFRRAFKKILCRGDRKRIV
Put plainly: cell-based.

Experiment [6] addresses T5, CHRM2 (Homo sapiens, UniProt P08172).
T5 sequence (P08172 1-466): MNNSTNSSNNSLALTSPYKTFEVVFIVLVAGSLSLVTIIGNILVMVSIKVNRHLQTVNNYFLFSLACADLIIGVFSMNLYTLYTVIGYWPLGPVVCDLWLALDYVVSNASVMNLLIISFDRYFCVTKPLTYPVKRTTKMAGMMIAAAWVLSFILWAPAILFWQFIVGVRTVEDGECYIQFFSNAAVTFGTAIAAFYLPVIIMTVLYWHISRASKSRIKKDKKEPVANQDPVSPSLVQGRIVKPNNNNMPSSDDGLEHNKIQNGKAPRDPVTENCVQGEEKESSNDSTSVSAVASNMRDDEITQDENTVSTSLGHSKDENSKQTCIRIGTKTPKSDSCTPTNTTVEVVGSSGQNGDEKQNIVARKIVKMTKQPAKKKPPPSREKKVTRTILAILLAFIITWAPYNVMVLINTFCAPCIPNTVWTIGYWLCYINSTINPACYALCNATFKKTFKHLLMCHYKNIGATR
Put plainly: cell-based.

The target of experiment [7] is DRD1 (Homo sapiens, UniProt P21728). Put plainly: cell-based.
DRD1, sequence (P21728 whole entry): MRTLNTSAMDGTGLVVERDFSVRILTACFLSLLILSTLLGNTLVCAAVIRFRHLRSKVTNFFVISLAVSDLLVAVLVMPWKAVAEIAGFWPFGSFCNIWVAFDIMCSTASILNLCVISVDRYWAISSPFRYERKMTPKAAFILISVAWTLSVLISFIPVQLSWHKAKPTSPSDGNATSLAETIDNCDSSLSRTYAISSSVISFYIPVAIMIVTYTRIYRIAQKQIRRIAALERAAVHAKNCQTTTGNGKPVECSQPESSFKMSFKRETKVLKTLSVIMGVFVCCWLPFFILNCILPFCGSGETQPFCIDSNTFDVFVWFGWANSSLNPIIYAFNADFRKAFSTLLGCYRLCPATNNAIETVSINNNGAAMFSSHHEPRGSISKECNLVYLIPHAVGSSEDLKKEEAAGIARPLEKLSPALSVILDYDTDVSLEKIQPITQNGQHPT
Experiment [8] addresses CNR1 (Homo sapiens, UniProt P21554). Briefly: cell-based.
Experiment [9] deals with T6, MAO-A (Homo sapiens, UniProt P21397).
T6 construct: purchased Sigma
T6 sequence (P21397 1-527): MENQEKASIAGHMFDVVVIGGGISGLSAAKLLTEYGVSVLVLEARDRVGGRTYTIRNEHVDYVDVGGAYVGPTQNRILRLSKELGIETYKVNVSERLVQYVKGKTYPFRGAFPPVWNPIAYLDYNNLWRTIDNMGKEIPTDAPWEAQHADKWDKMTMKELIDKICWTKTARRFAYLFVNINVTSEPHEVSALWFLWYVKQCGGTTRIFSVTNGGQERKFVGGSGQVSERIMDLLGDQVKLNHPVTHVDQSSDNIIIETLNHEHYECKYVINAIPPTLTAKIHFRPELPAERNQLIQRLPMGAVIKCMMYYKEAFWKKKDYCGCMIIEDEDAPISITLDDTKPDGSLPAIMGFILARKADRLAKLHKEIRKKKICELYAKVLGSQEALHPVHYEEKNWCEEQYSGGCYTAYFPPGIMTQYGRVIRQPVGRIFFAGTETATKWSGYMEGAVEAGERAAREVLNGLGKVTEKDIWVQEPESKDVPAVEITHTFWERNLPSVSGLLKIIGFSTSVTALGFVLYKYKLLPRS
Put plainly: biochemical.

Experiment [10] deals with T2, AVPR1A. Put plainly: cell-based. This is another data set of the same source.
Experiment [11] concerns the target T7, 5-HT2A receptor (5-HT2AR) (Mus musculus, UniProt P35363).
T7 construct: tissue Charles River; host or cells: living C57BL/6-Elite mice (neuronal receptor)
Briefly: Drug-induced Head Twitch Response (HTR) in mice. It counts as in vivo. To be noted: C57BL/6-Elite mice, i.p. 1 mg/kg, 15-to-30-minute window following administration.

Setting [12] is: HTR2A, GPCR, AGN (agonist), read-out: EC50.
Where [13] appears, read: HTR1A, GPCR, AGN (agonist), read-out: EC50.
Where [14] appears, read: AVPR1A, GPCR, AGN (agonist), read-out: EC50.
Setting [15] is: HTR3A, ion channel, OP (opener), read-out: EC50.
Where [16] appears, read: ADRA2A, GPCR, ANT (antagonist), read-out: IC50.
Setting [17] is: CHRM2, GPCR, ANT (antagonist), read-out: IC50.
Where [18] appears, read: DRD1, GPCR, AGN (agonist), read-out: EC50.
Setting [19] is: CNR1, GPCR, AGN (agonist), read-out: EC50.
[20] abbreviates: MAO-A, enzyme, IN (inhibitor), read-out: IC50.
[21] abbreviates: AVPR1A, GPCR, ANT (antagonist), read-out: IC50.

SMILES strings stand for the structures. Read-outs that look alike come from different tables or passages of the source.

What is called EC50 is the midpoint of the concentration-response curve. What is called IC50 is the concentration at which inhibition is half-maximal.

CNR1, sequence (P21554 whole entry): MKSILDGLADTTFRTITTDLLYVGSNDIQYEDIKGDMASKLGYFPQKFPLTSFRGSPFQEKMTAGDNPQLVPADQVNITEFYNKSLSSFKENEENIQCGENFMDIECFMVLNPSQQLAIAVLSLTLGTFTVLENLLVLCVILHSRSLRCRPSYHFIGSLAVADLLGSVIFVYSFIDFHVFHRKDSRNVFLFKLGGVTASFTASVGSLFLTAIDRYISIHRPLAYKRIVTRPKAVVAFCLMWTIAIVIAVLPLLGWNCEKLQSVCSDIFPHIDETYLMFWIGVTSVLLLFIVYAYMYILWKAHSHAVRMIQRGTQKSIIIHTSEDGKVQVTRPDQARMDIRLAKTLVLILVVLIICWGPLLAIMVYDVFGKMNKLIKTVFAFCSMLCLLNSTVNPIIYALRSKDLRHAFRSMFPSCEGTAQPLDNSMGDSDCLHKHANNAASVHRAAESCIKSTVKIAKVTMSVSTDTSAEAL
HTR2A, sequence (P28223 whole entry): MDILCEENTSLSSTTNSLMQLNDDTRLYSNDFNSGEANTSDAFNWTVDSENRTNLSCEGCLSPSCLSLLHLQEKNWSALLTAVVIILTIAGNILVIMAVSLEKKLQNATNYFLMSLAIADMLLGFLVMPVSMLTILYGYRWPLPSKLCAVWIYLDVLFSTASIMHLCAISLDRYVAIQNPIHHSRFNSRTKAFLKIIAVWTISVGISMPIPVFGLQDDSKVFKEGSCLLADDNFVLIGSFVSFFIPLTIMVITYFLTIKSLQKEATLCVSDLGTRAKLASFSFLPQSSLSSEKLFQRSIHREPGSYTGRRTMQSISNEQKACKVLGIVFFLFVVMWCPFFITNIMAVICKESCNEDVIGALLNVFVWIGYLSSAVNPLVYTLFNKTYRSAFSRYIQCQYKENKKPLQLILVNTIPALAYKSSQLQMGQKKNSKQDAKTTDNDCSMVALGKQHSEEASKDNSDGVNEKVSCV
T7 sequence (P35363 whole entry): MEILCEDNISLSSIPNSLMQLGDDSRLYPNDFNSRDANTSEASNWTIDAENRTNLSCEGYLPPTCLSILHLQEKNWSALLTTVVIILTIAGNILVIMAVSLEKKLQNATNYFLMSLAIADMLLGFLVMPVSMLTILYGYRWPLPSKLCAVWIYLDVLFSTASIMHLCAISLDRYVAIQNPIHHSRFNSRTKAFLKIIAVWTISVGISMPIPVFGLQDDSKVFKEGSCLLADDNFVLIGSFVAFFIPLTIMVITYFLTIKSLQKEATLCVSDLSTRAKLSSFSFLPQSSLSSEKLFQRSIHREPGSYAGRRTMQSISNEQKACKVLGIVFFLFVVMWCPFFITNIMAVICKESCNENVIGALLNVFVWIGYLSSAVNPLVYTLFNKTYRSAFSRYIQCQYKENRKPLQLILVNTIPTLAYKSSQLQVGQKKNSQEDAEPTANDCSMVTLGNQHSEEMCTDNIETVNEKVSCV

In the case of `CN(C)CCc1c[nH]c2cccc(OC(=O)OCc3ccccc3)c12` [B(II)], the EC50 in experiment [1] is 13.6 µM; in [2], more than 100 µM; in [3], more than 100 µM; in [4] (setting [12]) it was more than 100 µM; in experiment [7], more than 100 µM; in experiment [8], more than 100 µM. Also, the IC50 in experiment [5] is 9.08 µM; in [6], more than 100 µM; in [9] it was 21.9 µM; in experiment [10], 42.6 µM.

For the compound `CN(C)CCc1c[nH]c2cccc(OC(=O)OCC3CC3)c12` [B(III)], the EC50 in [1] (setting [13]) is 7.45 µM; in [2] (setting [14]) it was more than 100 µM; in experiment [3] (setting [15]) it was more than 100 µM; in experiment [4] (setting [12]), more than 100 µM; in [7] (setting [18]) it was more than 100 µM; in [8] (setting [19]) it was more than 100 µM. For the same compound, the “incidences of Head Twitch Response (HTR) relative to vehicle” value (“incidences … (HTR) relative to vehicle” below) in [11] is given as “Elevated incidences of HTR”. Besides, the 50% inhibitory concentration (IC50) in experiment [5] (setting [16]), in [6] (setting [17]), in [9] (setting [20]) and in experiment [10] (setting [21]) was more than 100 µM throughout.

Take `CN(C)Cc1c[nH]c2cccc(O[Si](C)(C)C(C)(C)C)c12` [A(IV)]: the EC50 was 4.46 µM in [1] (setting [13]); more than 100 µM in [2] (setting [14]); more than 100 µM in [3] (setting [15]); 34 µM in experiment [4] (setting [12]); more than 100 µM in [7] (setting [18]); more than 100 µM in [8] (setting [19]). Moreover, in experiment [11], the “incidences … (HTR) relative to vehicle” value is recorded as “Elevated incidences of HTR”. Moreover, the half-inhibitory concentration (IC50) was 16 µM in experiment [5] (setting [16]), more than 100 µM in [6] (setting [17]), 54.6 µM in experiment [9] (setting [20]) and 42.3 µM in experiment [10] (setting [21]).

With `CN(C)CCc1c[nH]c2cccc(OP(=O)(Oc3ccccc3)Oc3ccccc3)c12` [F(I)], the EC50 in experiment [1] is 6.36 µM; in experiment [2], more than 100 µM; in [3], more than 100 µM; in [4], more than 100 µM; in experiment [7], more than 100 µM; in [8], more than 100 µM. Moreover, the “incidences … (HTR) relative to vehicle” value in experiment [11] was “Elevated incidences of HTR”. Further, the half-inhibitory concentration (IC50) in [5] is 40.3 µM; in [6], 42.9 µM; in [9], 50.9 µM; in experiment [10] it was more than 100 µM.

As for `CCCC(=O)OCOc1cccc2[nH]cc(CCN(C)C)c12` [D(IV)], the concentration for a half-maximal effect (EC50) in [1] (setting [13]) is 18 µM; in [2] (setting [14]), more than 100 µM; in [3] (setting [15]) it was more than 100 µM; in experiment [4] (setting [12]) it was more than 100 µM; in experiment [7] (setting [18]) it was more than 100 µM; in experiment [8] (setting [19]) it was more than 100 µM. Moreover, the IC50 in experiment [5] (setting [16]), in [6] (setting [17]), in [9] (setting [20]) and in [10] (setting [21]) was more than 100 µM each time.

As to `CC(C)[Si](Oc1cccc2[nH]cc(CN(C)C)c12)(C(C)C)C(C)C` [A(V)], the 50% effective concentration (EC50) in experiment [1] (setting [13]) is 10.7 µM; in [2] (setting [14]), more than 100 µM; in experiment [3] (setting [15]) it was more than 100 µM; in [4] (setting [12]) it was more than 100 µM; in experiment [7] (setting [18]), more than 100 µM; in experiment [8] (setting [19]), more than 100 µM. Besides, the “incidences … (HTR) relative to vehicle” value in experiment [11] is “Elevated incidences of HTR”. The IC50 was more than 100 µM in [5] (setting [16]), more than 100 µM in experiment [6] (setting [17]), 48.8 µM in experiment [9] (setting [20]) and 17 µM in experiment [10] (setting [21]).

In the case of `CC(C)OC(=O)OCOc1cccc2c1c(CCN(C)C)cn2COC(=O)OC(C)C` [D(XIII)], the EC50 in experiment [1] (setting [13]), in [2] (setting [14]), in [3] (setting [15]), in experiment [4] (setting [12]), in experiment [7] (setting [18]) and in experiment [8] (setting [19]) was more than 100 µM throughout. Besides, the “incidences … (HTR) relative to vehicle” value in experiment [11] is given as “Elevated incidences of HTR”. The IC50 was more than 100 µM in [5] (setting [16]), 66.5 µM in [6] (setting [17]), more than 100 µM in experiment [9] (setting [20]) and more than 100 µM in [10] (setting [21]).

Turning to `CCCCC(=O)OCOc1cccc2[nH]cc(CCN(C)C)c12` [D(III)], the EC50 in experiment [1] (setting [13]) was 28.7 µM; in [2] (setting [14]), more than 100 µM; in experiment [3] (setting [15]), more than 100 µM; in experiment [4] (setting [12]) it was more than 100 µM; in [7] (setting [18]), more than 100 µM; in [8] (setting [19]), more than 100 µM. Besides, the “incidences … (HTR) relative to vehicle” value in experiment [11] was “Elevated incidences of HTR”. Besides, the half-inhibitory concentration (IC50) in experiment [5] (setting [16]), in [6] (setting [17]), in experiment [9] (setting [20]) and in [10] (setting [21]) was more than 100 µM throughout.

Values taken from patent US20250352512A2, “C4-S[…] DERIVATIVES AND METHODS OF USING” (priority 2022, published 2025).
